Like-named read-outs stand apart in the source and are kept apart here.
Key:
[1] = system: EBOV; conditions: cited from earlier work
[2] = system: EBOV VP30; type: cell-based, Ebola virus
[3] = biological target: WT PP1 (Homo sapiens, UniProt P62136); test: biochemical; type: binding
[4] = biological target: PP1 (Homo sapiens, UniProt P36873); type: cell-based
[5] = biological target: T1, PP1 (Homo sapiens, UniProt P62136); type: binding
[6] = system: Vero-E6 cells
[7] = biological target: PP1 MUT:cdNIPP1 (Homo sapiens, UniProt P62136, A299E/G274E/L73Y/Y70W); test: cell-based
[8] = 24 h
[9] = biological target: T1, PP1; type: binding; remark: listed apart in the source
[10] = biological target: PP1:cdNIPP1 (Homo sapiens, UniProt P62136); test: cell-based
[11] = system: EBOV-eGFP; test: microbe, parasite or virus in culture; type: cell-based, Ebola virus; conditions: Zaire ebolavirus, Vero C1008, 48 h, read-out: IC50 EBOV inhibition (virus titer)
[12] = in vitro; conditions: human
[13] = system: HEK293T cells
[14] = biological target: PP1:cdNIPP1 helix MUT (Homo sapiens, UniProt P62136); test: cell-based
[15] = system: EBOV-eGFP; test: microbe, parasite or virus in culture; type: cell-based, Ebola virus
[16] = biological target: PP1α (Oryctolagus cuniculus, UniProt P62139); type: biochemical
[17] = system: EBOV minigenome; type: cell-based, Ebola virus
[18] = biological target: PP1:cdNIPP1 RATA (Homo sapiens, UniProt P62136); test: cell-based
[19] = 1 h, pH 7.4
[20] = biological target: PP1 MUT:cdNIPP1 RATA (Homo sapiens, UniProt P62136, A299E/G274E/L73Y/Y70W); test: cell-based
[21] = 1 h, pH 7.4; remark: listed apart in the source
[22] = in vitro; conditions: mouse, serum

T1 sequence (P62136 7-300 limits assumed): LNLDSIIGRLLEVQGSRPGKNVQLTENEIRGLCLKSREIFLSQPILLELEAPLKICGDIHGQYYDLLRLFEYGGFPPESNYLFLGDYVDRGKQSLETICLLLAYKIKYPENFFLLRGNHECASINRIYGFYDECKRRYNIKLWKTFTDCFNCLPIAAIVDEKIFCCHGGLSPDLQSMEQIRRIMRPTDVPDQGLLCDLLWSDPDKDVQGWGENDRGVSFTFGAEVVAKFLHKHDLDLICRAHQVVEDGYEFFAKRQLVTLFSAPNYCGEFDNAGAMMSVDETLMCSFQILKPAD
Sequence of WT PP1 (P62136 7-300 limits assumed): as above
Sequence of PP1 MUT:cdNIPP1 (P62136 whole entry Y70W/L73Y/G274E/A299E, looked up): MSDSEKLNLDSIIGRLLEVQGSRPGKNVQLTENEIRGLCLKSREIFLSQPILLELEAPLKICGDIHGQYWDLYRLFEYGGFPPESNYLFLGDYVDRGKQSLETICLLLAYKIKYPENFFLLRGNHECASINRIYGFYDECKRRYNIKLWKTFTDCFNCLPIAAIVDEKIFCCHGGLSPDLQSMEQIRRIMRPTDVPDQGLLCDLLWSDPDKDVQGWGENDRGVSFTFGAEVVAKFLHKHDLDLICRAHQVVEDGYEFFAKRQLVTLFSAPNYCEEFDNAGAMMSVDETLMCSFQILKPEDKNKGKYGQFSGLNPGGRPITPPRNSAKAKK
Sequence of PP1 MUT:cdNIPP1 RATA (P62136 whole entry Y70W/L73Y/G274E/A299E, looked up): as above
Sequence of PP1:cdNIPP1 RATA (P62136 whole entry, looked up): as the sequence (P62136 whole entry Y70W/L73Y/G274E/A299E, looked up) above, with W70Y, Y73L, E274G, E299A counted along it
Sequence of PP1:cdNIPP1 (P62136 whole entry, looked up): as the sequence (P62136 whole entry Y70W/L73Y/G274E/A299E, looked up) above, with W70Y, Y73L, E274G, E299A counted along it
Sequence of PP1:cdNIPP1 helix MUT (P62136 whole entry, looked up): as the sequence (P62136 whole entry Y70W/L73Y/G274E/A299E, looked up) above, with W70Y, Y73L, E274G, E299A counted along it
Sequence of PP1 (Homo sapiens, UniProt P36873) (P36873 whole entry, looked up): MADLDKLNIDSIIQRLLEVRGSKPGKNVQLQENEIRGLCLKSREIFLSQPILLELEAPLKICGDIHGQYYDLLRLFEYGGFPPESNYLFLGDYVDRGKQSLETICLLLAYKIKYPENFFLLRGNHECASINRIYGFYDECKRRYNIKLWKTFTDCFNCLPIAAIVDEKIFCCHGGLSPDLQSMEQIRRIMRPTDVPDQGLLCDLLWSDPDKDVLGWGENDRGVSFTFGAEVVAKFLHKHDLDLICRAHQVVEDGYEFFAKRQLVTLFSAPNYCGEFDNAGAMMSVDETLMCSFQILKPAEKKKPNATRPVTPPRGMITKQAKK
Sequence of PP1α (P62139 whole entry, looked up): as the sequence (P62136 whole entry Y70W/L73Y/G274E/A299E, looked up) above, with W70Y, Y73L, E274G, E299A counted along it

| SMILES | Rmax [3] [RU] | IC50 [7] [µM] | IC50 [10] [nM] | IC50 [11] [µM] | CC50 [12] [µM] | effect on cellular viability [13] | IC50 [14] [µM] | IC50 [18] [µM] | remained intact in mouse liver microsomes [19] | IC50 [20] [µM] | remaining in human liver microsomes [21] [%] | also measured |
| --- | --- | --- | --- | --- | --- | --- | --- | --- | --- | --- | --- | --- |
| CCNC(=O)NC(=O)C(C)OC(=O)c1c2c(nc3ccccc13)/C(=C\c1cccc([N+](=O)[O-])c1)CCC2 (centres unmarked) [1E7] | – | – | – | – | – | – | – | – | – | – | – | EBOV inhibition [1]: inhibited EBOV |
| C=C1[C@@H](O)[C@@H]2O[C@]3(CC[C@H](/C=C/[C@@H](C)[C@@H]4CC(C)=C[C@@]5(O[C@H](C[C@@](C)(O)C(=O)O)CC[C@H]5O)O4)O3)CC[C@H]2O[C@@H]1[C@@H](O)C[C@H](C)[C@H]1O[C@@]2(CCCCO2)CC[C@H]1C [okadaic acid] | – | – | – | – | – | – | – | – | – | – | – | increase of VP30 phosphopeptides (Thr-119 and Ser-124) vs DMSO control [2]: 3.3 fold |
| COc1ccc(C=C2CCc3c2nc2ccccc2c3C(=O)OC(C)C(=O)NC2CC2)cc1OC (centres unmarked) [1E7-07] | 9.763 | 4.5 | 3700 | 8.6 | > 300 | no effect on cellular viability | 4.3 | > 20 | over 90% | > 20 | 90 | Kd [3]: 661 nM; kd [3]: 0.0009566 s⁻¹; kon ([3]; pH 7.4, read-out: ka): 1450 M⁻¹ s⁻¹; effect on PP1 cellular localization [4]: does not affect; competition with pRb-Tat peptide binding to PP1 [5]: competed dose-dependently; toxicity (Viral ToxGlo) [6]: no toxicity; remained in mouse serum [8]: 25%; protection of peptide 75[…]96 from ELNLLB painting [9]: over 90%; recovered peptide signals compared to the control (protection from ELNLLB painting) [9]: over 70%; EBOV inhibitory activity (comparison among analogs) [15]: best EBOV inhibitory activity; inhibition at 10 µM ([15]; Zaire ebolavirus, Vero C1008, 72 h, read-out: EBOV inhibitory activity): ~70%; effect on PP1 enzymatic activity [16]: no effect; inhibition of EBOV gene expression (Renilla luciferase) [17]: strongly inhibit; remaining in human serum (human, serum, 24 h): no degradation; half-life [22]: 360 min |
| CC[C@H](C)[C@H](NC(=O)[C@H](Cc1ccccc1)NC(=O)[C@H](CS)NC(=O)[C@@H](NC(=O)[C@H](CCC(N)=O)NC(=O)[C@H](CS)NC(=O)[C@H](Cc1c[nH]cn1)NC(=O)[C@H](Cc1ccccc1)NC(=O)[C@H](CS)NC(=O)[C@H](CS)NC(=O)[C@H](CCCCN)NC(=O)[C@H](CCCCN)NC(=O)[C@H](CCCNC(=N)N)NC(=O)[C@H](CC(C)C)NC(=O)[C@@H]1CCCN1C(=O)[C@H](CO)NC(=O)[C@H](CO)NC(=O)[C@@H]1CCCN1C(=O)[C@H](Cc1ccccc1)NC(=O)[C@H](CCCCN)NC(=O)[C@H](Cc1ccc(O)cc1)NC(=O)[C@@H]1CCCN1C(=O)[C@H](COP(=O)(O)O)NC(=O)[C@H](CCCNC(=N)N)NC(=O)[C@@H]1CCCN1C(=O)[C@@H](NC(=O)[C@@H](N)Cc1c[nH]cn1)[C@@H](C)CC)C(C)C)C(=O)N[C@H](C(=O)N[C@@H](CCCCN)C(=O)O)[C@@H](C)O [pRb-Tat, reference compound] | 212.4 | – | – | – | – | – | – | – | – | – | – | – |
| CCNC(=O)NC(=O)C(C)OC(=O)c1c2c(nc3ccccc13)/C(=C\c1ccc(OC)c(OC)c1)CC2 (centres unmarked) [1E7-03] | – | 2.7 | 1500 | 7.2 | > 300 | no effect on cellular viability | 2.4 | > 20 | over 90% | > 20 | 60 | inhibition of EBOV gene expression (Renilla luciferase) ([17]; 10 μM): strongly inhibit; remaining in human serum (10 μM, 37°C, after 24 h): 78% |
